Patent publication US20160038448A1, “THE INHIBITION OF THE TOXIC EFFECTS OF ISLET AMYLOID FORMATION BY FLURBIPROFEN AND FLURBIPROFEN DERIVATIVES” (The Research Foundation for the State University of New York, priority 2013, published 2016)
Where a SMILES comes first, the peptide text is derived from it. Bridges are numbered along the chain shown (N, C = ends).

Experiments:
[1] = Parallel biophysical and cell viability experiments on h-IAPP variants; format: cell-based
Method: Parallel biophysical and cell viability experiments were conducted using a range of conditions that alter the length of the lag phase. h-IAPP amyloid kinetics are concentration-dependent. Decreasing the peptide concentration leads to an increase in the length of the lag phase, while an increase in human-IAPP concentration leads to a shortening of the lag phase. The length of the lag phase can also be controlled by altering the temperature. Lower temperatures lead to a longer lag phase; the lag phase is 2-fold longer at 15° C. […] A set of rationally designed Ser-20 mutations were used. Ser-20 is located at a critical position in the h-IAPP sequence and modulates its aggregation kinetics. […] Toxicity and kinetics experiments were performed on the Ser-20 mutants. […] An human-IAPP triple mutant, 3×L-IAPP, in which Leu replaced the three aromatic residues (Phe-15, Phe=23 and Tyr-37) was tested. This mutant forms amyloid 9-fold more slowly than wild type human IAPP (Marek at al. 2007). […] The duration of toxicity for all the mutants and for all the conditions with human IAPP wild type correlated with the length of the respective lag phases.

[2] = Marek at al. 2007; cited from earlier work

In the case of CC[C@H](C)[C@H](NC(=O)[C@H](C)NC(=O)CNC(=O)[C@H](CC(C)C)NC(=O)[C@H](CC(N)=O)NC(=O)[C@H](CC(N)=O)NC(=O)[C@H](CO)NC(=O)[C@H](CO)NC(=O)[C@H](Cc1c[nH]cn1)NC(=O)[C@@H](NC(=O)[C@H](CC(C)C)NC(=O)[C@H](CC(C)C)NC(=O)[C@H](CC(N)=O)NC(=O)[C@H](C)NC(=O)[C@H](CC(C)C)NC(=O)[C@H](CCCNC(=N)N)NC(=O)[C@H](CCC(N)=O)NC(=O)[C@@H](NC(=O)[C@H](C)NC(=O)[C@@H]1CSSC[C@H](NC(=O)[C@@H](N)CCCCN)C(=O)N[C@@H](CC(N)=O)C(=O)N[C@@H]([C@@H](C)O)C(=O)N[C@@H](C)C(=O)N[C@@H]([C@@H](C)O)C(=O)N1)[C@@H](C)O)C(C)C)C(=O)N[C@@H](CC(C)C)C(=O)N[C@@H](CO)C(=O)N[C@@H](CO)C(=O)N[C@H](C(=O)N[C@@H](CC(N)=O)C(=O)N[C@H](C(=O)NCC(=O)N[C@@H](CO)C(=O)N[C@@H](CC(N)=O)C(=O)N[C@H](C(=O)N[C@@H](CC(C)C)C(N)=O)[C@@H](C)O)C(C)C)[C@@H](C)O [3×L-IAPP] (H-KCNTATCATQRLANLLVHSSNNLGAILSSTNVGSNTL-NH2; disulfide 2-7), the “onset and duration of toxicity relative to wild type human IAPP” value [1] is listed as “longer duration of toxicity” and the “amyloid formation slower than wild type human IAPP” value [2] is listed as 9 fold.
